Measured values as given in ChEMBL document CHEMBL1687815, “In vivo selection of a missense mutation in adeR and conversion of the novel blaOXA-164 gene into blaOXA-58 in carbapenem-resistant Acinetobacter baumannii isolates from a hospitalized patient” (2010).

Columns and labels:
Escherichia coli [1] = assay: Antimicrobial activity against Escherichia coli NEB 5-alpha harboring plasmid WH1266 by Etest; format: functional
Escherichia coli [2] = assay: Antimicrobial activity against Escherichia coli NEB 5-alpha harboring beta-lactamase OXA-164 by Etest; format: functional
Escherichia coli [3] = assay: Antimicrobial activity against Escherichia coli NEB 5-alpha harboring beta-lactamase OXA-58 by Etest; format: functional
Acinetobacter baumannii [4] = assay: Antimicrobial activity against Acinetobacter baumannii ATCC 19606 harboring plasmid WH1266 by Etest; format: functional; details: ATCC 19606 = CIP 70.34 = JCM 6841
Acinetobacter baumannii [5] = assay: Antimicrobial activity against Acinetobacter baumannii ATCC 19606 harboring beta-lactamase OXA-164 by Etest; format: functional; details: ATCC 19606 = CIP 70.34 = JCM 6841
Acinetobacter baumannii [6] = assay: Antimicrobial activity against Acinetobacter baumannii ATCC 19606 harboring beta-lactamase OXA-58 by Etest; format: functional; details: ATCC 19606 = CIP 70.34 = JCM 6841
Acinetobacter baumannii [7] = assay: Antimicrobial activity against Acinetobacter baumannii ATCC 17978 harboring plasmid WH1266 by Etest; format: functional
Acinetobacter baumannii [8] = assay: Antimicrobial activity against Acinetobacter baumannii ATCC 17978 harboring beta-lactamase OXA-164 by Etest; format: functional
Acinetobacter baumannii [9] = assay: Antimicrobial activity against Acinetobacter baumannii ATCC 17978 harboring beta-lactamase OXA-58 by Etest; format: functional
Acinetobacter baumannii [10] = assay: Antimicrobial activity against Acinetobacter baumannii by vitek 2 system
Acinetobacter baumannii [11] = assay: Antimicrobial activity against Acinetobacter baumannii isolate J expressing beta-lactamase OXA-58 isolated from bedsore by Etest
Acinetobacter baumannii [12] = assay: Antimicrobial activity against Acinetobacter baumannii isolate J expressing beta-lactamase OXA-58 isolated from bedsore by vitek 2 system
Acinetobacter baumannii [13] = assay: Antimicrobial activity against Acinetobacter baumannii isolate F expressing beta-lactamase OXA-164 isolated from tracheostoma of patient by Etest
Acinetobacter baumannii [14] = assay: Antimicrobial activity against Acinetobacter baumannii isolate K expressing beta-lactamase OXA-58 isolated from blood culture of patient by Etest
Acinetobacter baumannii [15] = assay: Antimicrobial activity against Acinetobacter baumannii isolate G expressing beta-lactamase OXA-58 isolated from tracheal secretion of patient by Etest
Acinetobacter baumannii [16] = assay: Antimicrobial activity against Acinetobacter baumannii isolate H expressing beta-lactamase OXA-58 isolated from tracheal secretion of patient by Etest
Acinetobacter baumannii [17] = assay: Antimicrobial activity against Acinetobacter baumannii isolate I expressing beta-lactamase OXA-58 isolated from tracheal secretion of patient by Etest
Acinetobacter baumannii [18] = assay: Antimicrobial activity against Acinetobacter baumannii isolate L expressing beta-lactamase OXA-58 isolated from tracheal secretion of patient by Etest
Acinetobacter baumannii [19] = assay: Antimicrobial activity against Acinetobacter baumannii isolate M expressing beta-lactamase OXA-58 isolated from tracheal secretion of patient by Etest
Acinetobacter baumannii [20] = assay: Antimicrobial activity against Acinetobacter baumannii isolate A expressing beta-lactamase OXA-164 isolated from tracheal secretion of patient by Etest
Acinetobacter baumannii [21] = assay: Antimicrobial activity against Acinetobacter baumannii isolate B expressing beta-lactamase OXA-164 isolated from tracheal secretion of patient by Etest
Acinetobacter baumannii [22] = assay: Antimicrobial activity against Acinetobacter baumannii isolate C expressing beta-lactamase OXA-164 isolated from tracheal secretion of patient by Etest
Acinetobacter baumannii [23] = assay: Antimicrobial activity against Acinetobacter baumannii isolate D expressing beta-lactamase OXA-164 isolated from tracheal secretion of patient by Etest
Acinetobacter baumannii [24] = assay: Antimicrobial activity against Acinetobacter baumannii isolate E expressing beta-lactamase OXA-164 isolated from tracheal secretion of patient by Etest
Acinetobacter baumannii [25] = assay: Antimicrobial activity against Acinetobacter baumannii isolate F expressing beta-lactamase OXA-164 isolated from tracheostoma of patient by vitek 2 system
Acinetobacter baumannii [26] = assay: Antimicrobial activity against Acinetobacter baumannii isolate K expressing beta-lactamase OXA-58 isolated from blood culture of patient by vitek 2 system
Acinetobacter baumannii [27] = assay: Antimicrobial activity against Acinetobacter baumannii isolate G expressing beta-lactamase OXA-58 isolated from tracheal secretion of patient by vitek 2 system
Acinetobacter baumannii [28] = assay: Antimicrobial activity against Acinetobacter baumannii isolate H expressing beta-lactamase OXA-58 isolated from tracheal secretion of patient by vitek 2 system
Acinetobacter baumannii [29] = assay: Antimicrobial activity against Acinetobacter baumannii isolate I expressing beta-lactamase OXA-58 isolated from tracheal secretion of patient by vitek 2 system
Acinetobacter baumannii [30] = assay: Antimicrobial activity against Acinetobacter baumannii isolate L expressing beta-lactamase OXA-58 isolated from tracheal secretion of patient by vitek 2 system
Acinetobacter baumannii [31] = assay: Antimicrobial activity against Acinetobacter baumannii isolate M expressing beta-lactamase OXA-58 isolated from tracheal secretion of patient by vitek 2 system
Acinetobacter baumannii [32] = assay: Antimicrobial activity against Acinetobacter baumannii isolate A expressing beta-lactamase OXA-164 isolated from tracheal secretion of patient by vitek 2 system
Acinetobacter baumannii [33] = assay: Antimicrobial activity against Acinetobacter baumannii isolate B expressing beta-lactamase OXA-164 isolated from tracheal secretion of patient by vitek 2 system
Acinetobacter baumannii [34] = assay: Antimicrobial activity against Acinetobacter baumannii isolate C expressing beta-lactamase OXA-164 isolated from tracheal secretion of patient by vitek 2 system
Acinetobacter baumannii [35] = assay: Antimicrobial activity against Acinetobacter baumannii isolate D expressing beta-lactamase OXA-164 isolated from tracheal secretion of patient by vitek 2 system
Acinetobacter baumannii [36] = assay: Antimicrobial activity against Acinetobacter baumannii isolate E expressing beta-lactamase OXA-164 isolated from tracheal secretion of patient by vitek 2 system

Measured: MIC

C[C@@H](O)[C@H]1C(=O)N2C(C(=O)O)=C(SCCNC=N)C[C@H]12 [IMIPENEM ANHYDROUS]
32 mg/L: Acinetobacter baumannii [13] | Acinetobacter baumannii [20] | Acinetobacter baumannii [21] | Acinetobacter baumannii [22] | Acinetobacter baumannii [23] | Acinetobacter baumannii [24]
0.19 mg/L: Escherichia coli [1]
≥ 16 mg/L: Acinetobacter baumannii [12] | Acinetobacter baumannii [25] | Acinetobacter baumannii [26] | Acinetobacter baumannii [27] | Acinetobacter baumannii [28] | Acinetobacter baumannii [29] | Acinetobacter baumannii [30] | Acinetobacter baumannii [31] | Acinetobacter baumannii [33] | Acinetobacter baumannii [34] | Acinetobacter baumannii [35] | Acinetobacter baumannii [36]
0.125 mg/L: Acinetobacter baumannii [4]
8 mg/L: Acinetobacter baumannii [10] | Acinetobacter baumannii [32]
> 32 mg/L: Acinetobacter baumannii [5] | Acinetobacter baumannii [6] | Acinetobacter baumannii [8] | Acinetobacter baumannii [9]
0.5 mg/L: Escherichia coli [3]
≥ 64 mg/L: Acinetobacter baumannii [11] | Acinetobacter baumannii [14] | Acinetobacter baumannii [15] | Acinetobacter baumannii [16] | Acinetobacter baumannii [17] | Acinetobacter baumannii [18] | Acinetobacter baumannii [19]
0.25 mg/L: Escherichia coli [2] | Acinetobacter baumannii [7]
